According to patent publication US7598273B2, “Inhibitors of the gastric H+, K+-ATPase with enhanced therapeutic properties” (Auspex Pharmaceuticals, Inc, priority 2005, dated 2009):

System: pylorus-ligated rats
Assay: Rat gastric activity, pylorus ligation (antisecretory activity)
Assay type: in vivo
Conditions: PO 30 mg/kg, 30 minutes before ligation, gastric contents collected 4 hours later, Wistar male rats
Experimental: Compounds of formula (1) according to the present invention were evaluated for possible antisecretory activity in pylorus-ligated rats. […] Wistar derived male rats weighing 210±10 g were fasted overnight. […] Animals were sacrificed 4 hours later and the gastric contents were collected. After centrifugation, the volume of each sample was measured and acidity was determined by titration.
In the case of `[2H]c1nc(C([2H])([2H])[S+]([O-])c2nc3cc(OC([2H])([2H])[2H])ccc3[nH]2)c(C([2H])([2H])[2H])c(OC([2H])([2H])[2H])c1C([2H])([2H])[2H]` (centres unmarked) [Example 10, d15-5-methoxy-2-(4-methoxy-3,5-dimethyl-pyridin-2-ylmethane-sulfinyl)-1H-benzimidazole], the “% inhibition relative to vehicle controls: Acidity (μEq/mL)” value is reported as 89%, the “% inhibition relative to vehicle controls: Total Acid Output (μEq/4 hours)” value is reported as 95% and the “% inhibition relative to vehicle controls: Volume (mL/4 hours)” value is reported as 55%.

System: not given
Assay: not given
Conditions: human, topical or ocular
In the case of `[2H]c1nc(C([2H])([2H])[S+]([O-])c2nc3cc(OC([2H])([2H])[2H])ccc3[nH]2)c(C([2H])([2H])[2H])c(OC([2H])([2H])[2H])c1C([2H])([2H])[2H]` (centres unmarked) [Example 10, d15-5-methoxy-2-(4-methoxy-3,5-dimethyl-pyridin-2-ylmethane-sulfinyl)-1H-benzimidazole], the “degradation half-life increased as compared to non-isotopically enriched omeprazole” value is reported as 20-60% and the “increase in the degradation half-life, as compared to the non-isotopically enriched drug” value (“increase … to the non-isotopically enriched drug” for short) is reported as ≥ 10%.
In the case of `[2H]c1nc(C[S+]([O-])c2nc3cc(OC([2H])([2H])[2H])ccc3[nH]2)c(C([2H])([2H])[2H])c(OC([2H])([2H])[2H])c1C([2H])([2H])[2H]` (centres unmarked) [Example 11, d13-5-methoxy-2-(4-methoxy-3,5-dimethylpyridin-2-ylmethane-sulfinyl)-1H-benzimidazole], the “degradation half-life increased as compared to non-isotopically enriched omeprazole” value is reported as 20-60% and the “increase … to the non-isotopically enriched drug” value is reported as ≥ 10%.
With `[2H]c1nc(C[S+]([O-])c2nc3cc(OC([2H])([2H])[2H])ccc3[nH]2)c(C([2H])([2H])[2H])c(OC)c1C([2H])([2H])[2H]` (centres unmarked) [Example 13, d10-5-methoxy-2-(4-methoxy-3,5-dimethylpyridin-2-ylmethane-sulfinyl)-1H-benzimidazole] the “increase … to the non-isotopically enriched drug” value was ≥ 10%.
In the case of `[2H]c1nc(C([2H])([2H])[S+]([O-])c2nc3cc(OC([2H])([2H])[2H])ccc3[nH]2)c(C([2H])([2H])[2H])c(OC)c1C([2H])([2H])[2H]` (centres unmarked) [Example 14, d12-5-methoxy-2-(4-methoxy-3,5-dimethylpyridin-2-ylmethane-sulfinyl)-1H-benzimidazole], the “increase … to the non-isotopically enriched drug” value is reported as ≥ 10%.
For `[2H]c1nc(C([2H])([2H])[S+]([O-])c2nc3cc(OC)ccc3[nH]2)c(C([2H])([2H])[2H])c(OC([2H])([2H])[2H])c1C([2H])([2H])[2H]` (centres unmarked) [Example 18, d12-5-methoxy-2-(4-methoxy-3,5-dimethylpyridin-2-ylmethane-sulfinyl)-1H-benzimidazole], the “increase … to the non-isotopically enriched drug” value was ≥ 10%.
For `[2H]c1nc(C[S+]([O-])c2nc3cc(OC)ccc3[nH]2)c(C([2H])([2H])[2H])c(OC)c1C([2H])([2H])[2H]` (centres unmarked) [Example 19, d7-5-methoxy-2-(4-methoxy-3,5-dimethylpyridin-2-ylmethane-sulfinyl)-1H-benzimidazole], the “increase … to the non-isotopically enriched drug” value was ≥ 10%.
For `[2H]c1nc(C[S+]([O-])c2nc3cc(OC)ccc3[nH]2)c(C([2H])([2H])[2H])c(OC([2H])([2H])[2H])c1C([2H])([2H])[2H]` (centres unmarked) [Example 20, d10-5-methoxy-2-(4-methoxy-3,5-dimethylpyridin-2-ylmethane-sulfinyl)-1H-benzimidazole], the “increase … to the non-isotopically enriched drug” value was ≥ 10%.
In the case of `[2H]c1nc(C([2H])([2H])[S+]([O-])c2nc3cc(OC)ccc3[nH]2)c(C([2H])([2H])[2H])c(OC)c1C([2H])([2H])[2H]` (centres unmarked) [Example 21, d9-5-methoxy-2-(4-methoxy-3,5-dimethylpyridin-2-ylmethane-sulfinyl)-1H-benzimidazole], the “increase … to the non-isotopically enriched drug” value is reported as ≥ 10%.
In the case of `[2H]C([2H])([2H])Oc1ccc2[nH]c([S+]([O-])C([2H])([2H])c3ncc(C)c(OC([2H])([2H])[2H])c3C)nc2c1` (centres unmarked) [Example 25, d8-5-methoxy-2-(4-methoxy-3,5-dimethylpyridin-2-ylmethane-sulfinyl)-1H-benzimidazole], the “increase … to the non-isotopically enriched drug” value is reported as ≥ 10%.
For `[2H]C([2H])([2H])Oc1ccc2[nH]c([S+]([O-])Cc3ncc(C)c(OC)c3C)nc2c1` (centres unmarked) [Example 26, d3-5-methoxy-2-(4-methoxy-3,5-dimethylpyridin-2-ylmethane-sulfinyl)-1H-benzimidazole], the “increase … to the non-isotopically enriched drug” value was ≥ 10%.
With `[2H]C([2H])([2H])Oc1ccc2[nH]c([S+]([O-])Cc3ncc(C)c(OC([2H])([2H])[2H])c3C)nc2c1` (centres unmarked) [Example 27, d6-5-methoxy-2-(4-methoxy-3,5-dimethylpyridin-2-ylmethane-sulfinyl)-1H-benzimidazole] the “increase … to the non-isotopically enriched drug” value was ≥ 10%.
With `[2H]C([2H])([2H])Oc1ccc2[nH]c([S+]([O-])C([2H])([2H])c3ncc(C)c(OC)c3C)nc2c1` (centres unmarked) [Example 28, d5-5-methoxy-2-(4-methoxy-3,5-dimethylpyridin-2-ylmethane-sulfinyl)-1H-benzimidazole] the “increase … to the non-isotopically enriched drug” value was ≥ 10%.
For `[2H]C([2H])([2H])Oc1c(C)cnc(C([2H])([2H])[S+]([O-])c2nc3cc(OC)ccc3[nH]2)c1C` (centres unmarked) [Example 32, d5-5-methoxy-2-(4-methoxy-3,5-dimethylpyridin-2-ylmethane-sulfinyl)-1H-benzimidazole], the “increase … to the non-isotopically enriched drug” value was ≥ 10%.
In the case of `[2H]C([2H])([2H])Oc1c(C)cnc(C[S+]([O-])c2nc3cc(OC)ccc3[nH]2)c1C` (centres unmarked) [Example 34, d3-5-methoxy-2-(4-methoxy-3,5-dimethylpyridin-2-ylmethane-sulfinyl)-1H-benzimidazole], the “increase … to the non-isotopically enriched drug” value is reported as ≥ 10%.
In the case of `[2H]c1nc(C[S@+]([O-])c2nc3cc(OC([2H])([2H])[2H])ccc3[nH]2)c(C([2H])([2H])[2H])c(OC([2H])([2H])[2H])c1C([2H])([2H])[2H]` [Example 39, d13-(S)-5-methoxy-2-(4-methoxy-3,5-dimethylpyridin-2-ylmethane-sulfinyl)-1H-benzimidazole], the “degradation half-life increased as compared to non-isotopically enriched omeprazole” value is reported as 20-60% and the “increase … to the non-isotopically enriched drug” value is reported as ≥ 10%.

System: not given
Assay: not given
Conditions: at steady state, CYP2C19 poor vs extensive metabolizers; cited from earlier work
In the case of `COc1ccc2nc([S@@+]([O-])Cc3ncc(C)c(OC)c3C)[nH]c2c1` [esomeprazole, (S)-5-methoxy-2-(4-methoxy-3,5-dimethylpyridin-2-ylmethane-sulfinyl)-1H-benzimidazole], the “ratio of AUC in Poor metabolizers to AUC in the rest of the population (extensive metabolizers)” value is given as “approximately 2”.

Same assay, conditions: human plasma, relative to omeprazole; cited from earlier work
For `COc1ccc2nc([S@@+]([O-])Cc3ncc(C)c(OC)c3C)[nH]c2c1` [esomeprazole, (S)-5-methoxy-2-(4-methoxy-3,5-dimethylpyridin-2-ylmethane-sulfinyl)-1H-benzimidazole], the “half-life in human plasma higher than that of omeprazole” value is given as 20%.
